pIC50: −log10 of the molar value.

In the assay the target is T1, Recombinant human EP300 containing the bromodomain (EP300-BD (1040-1161)) (Homo sapiens, UniProt Q09472).
T1 construct: Recombinant human EP300 bromodomain (EP300-BD (1040-1161)); made in house; host or cells: E. coli BL21-CodonPlus (DE3), modified pET vector
T1 sequence (Q09472 1040-1161): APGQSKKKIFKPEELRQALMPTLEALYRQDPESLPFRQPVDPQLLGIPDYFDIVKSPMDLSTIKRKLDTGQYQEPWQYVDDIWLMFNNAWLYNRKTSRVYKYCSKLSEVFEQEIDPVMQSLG
Description: EP300 Alphascreen binding assay. The method in brief:
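Displacement of a biotinylated acetyl-K56 histone H3 peptide from the N-His bromodomain construct (1040-1161) measured by AlphaScreen proximity, beads at 7.5 μg/ml final, read 60 min after addition. Protein, peptide and compound first incubated 1 h at room temperature, pH 7.5 HEPES buffer; IC50 by four-parameter logistic fit.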

In general, pIC50 refers to the negative decadic logarithm of the IC50, by convention in mol/L. Take `Cc1noc(C)c1-c1cnc2c(c1)c(-c1ccc(C(N)=O)cc1)cn2C(c1ccccn1)C1CCCC1` (stereo not shown) [P-0020, 4-(1-(cyclopentyl(pyridin-2-yl)methyl)-5-(3,5-dimethylisoxazol-4-yl)-1H-pyrrolo[2,3-b]pyridin-3-yl)benzamide]: the pIC50 is 5.10 to 6.00.
As for `CNC(=O)c1ccc(-c2cn(C(c3ccccn3)C3CCCC3)c3ncc(-c4c(C)noc4C)cc23)cc1` (stereo not shown) [P-0021, 4-(1-(cyclopentyl(pyridin-2-yl)methyl)-5-(3,5-dimethylisoxazol-4-yl)-1H-pyrrolo[2,3-b]pyridin-3-yl)-N-methylbenzamide], the figure is 5.10 to 6.00; as for `Cc1noc(C)c1-c1cnc2c(c1)c(-c1ccc(C#N)cc1)cn2C(c1ccccn1)C1CCCC1` (stereo not shown) [P-0022, 4-(1-(cyclopentyl(pyridin-2-yl)methyl)-5-(3,5-dimethylisoxazol-4-yl)-1H-pyrrolo[2,3-b]pyridin-3-yl)benzonitrile], 3.00 to 5.10; as for `Cc1noc(C)c1-c1cnc2c(c1)c(-c1ccc3c(c1)CNC3=O)cn2C(c1ccccn1)C1CCCC1` (stereo not shown) [P-0023, 5-(1-(cyclopentyl(pyridin-2-yl)methyl)-5-(3,5-dimethylisoxazol-4-yl)-1H-pyrrolo[2,3-b]pyridin-3-yl)isoindolin-1-one], 5.10 to 6.00.
On to `Cc1noc(C)c1-c1cnc2c(c1)c(-c1ccc(-c3nn[nH]n3)cc1)cn2C(c1ccccn1)C1CCCC1` (stereo not shown) [P-0024, 4-(3-(4-(2H-tetrazol-5-yl)phenyl)-1-(cyclopentyl(pyridin-2-yl)methyl)-1H-pyrrolo[2,3-b]pyridin-5-yl)-3,5-dimethylisoxazole], for which the pIC50 is 5.10 to 6.00.
On to `Cc1noc(C)c1-c1cnc2c(c1)c(-c1ccc(C(=O)O)c(F)c1)cn2C(c1ccccn1)C1CCCC1` (stereo not shown) [P-0025, 4-(1-(cyclopentyl(pyridin-2-yl)methyl)-5-(3,5-dimethylisoxazol-4-yl)-1H-pyrrolo[2,3-b]pyridin-3-yl)-2-fluorobenzoic acid], for which the pIC50 was 6.00 to 10.00.
The result for `Cc1noc(C)c1-c1cnc2c(c1)c(-c1ccc(C(=O)O)nc1)cn2C(c1ccccn1)C1CCCC1` (stereo not shown) [P-0026, 5-(1-(cyclopentyl(pyridin-2-yl)methyl)-5-(3,5-dimethylisoxazol-4-yl)-1H-pyrrolo[2,3-b]pyridin-3-yl)picolinic acid] reads 6.00 to 10.00; that for `Cc1cc(-c2c(C(F)(F)F)n([C@@H](C)c3ccccn3)c3cc(-c4c(C)noc4C)cnc23)ccc1C(=O)O` [P-0243, (S)-4-(6-(3,5-dimethylisoxazol-4-yl)-1-(1-(pyridin-2-yl)ethyl)-2-(trifluoromethyl)-1H-pyrrolo[3,2-b]pyridin-3-yl)-2-methylbenzoic acid], 5.10 to 6.00.
The result for `COc1cc(-c2c(C(F)(F)F)n([C@@H](C)c3ccccn3)c3cc(-c4c(C)noc4C)cnc23)ccc1C(=O)O` [P-0244, (S)-4-(6-(3,5-dimethylisoxazol-4-yl)-1-(1-(pyridin-2-yl)ethyl)-2-(trifluoromethyl)-1H-pyrrolo[3,2-b]pyridin-3-yl)-2-methoxybenzoic acid] reads 5.10 to 6.00; that for `Cc1noc(C)c1-c1cnc2c(-c3cccc(C(=O)O)c3F)c(C(F)(F)F)n([C@@H](C)c3ccccn3)c2c1` [P-0245, (S)-3-(6-(3,5-dimethylisoxazol-4-yl)-1-(1-(pyridin-2-yl)ethyl)-2-(trifluoromethyl)-1H-pyrrolo[3,2-b]pyridin-3-yl)-2-fluorobenzoic acid], 6.00 to 10.00.
As for `Cc1noc(C)c1-c1cnc2c(-c3cccc(C(=O)O)c3C)c(C(F)(F)F)n([C@@H](C)c3ccccn3)c2c1` [P-0246, (S)-3-(6-(3,5-dimethylisoxazol-4-yl)-1-(1-(pyridin-2-yl)ethyl)-2-(trifluoromethyl)-1H-pyrrolo[3,2-b]pyridin-3-yl)-2-methylbenzoic acid], the pIC50 is 5.10 to 6.00.
The result for `Cc1noc(C)c1-c1cnc2c(-c3cccc(C(=O)O)c3Cl)c(C(F)(F)F)n([C@@H](C)c3ccccn3)c2c1` [P-0247, (S)-2-chloro-3-(6-(3,5-dimethylisoxazol-4-yl)-1-(1-(pyridin-2-yl)ethyl)-2-(trifluoromethyl)-1H-pyrrolo[3,2-b]pyridin-3-yl)benzoic acid] reads 6.00 to 10.00; that for `CCOC(=O)c1cc(-c2cn(-c3ccc(F)cc3F)c3ncc(-c4c(C)noc4C)cc23)c(OCC)cc1O` [P-0248, ethyl 5-(1-(2,4-difluorophenyl)-5-(3,5-dimethylisoxazol-4-yl)-1H-pyrrolo[2,3-b]pyridin-3-yl)-4-ethoxy-2-hydroxybenzoate], 3.00 to 5.10; that for `CCOc1cc(O)c(C(=O)O)cc1-c1cn(-c2ccc(F)cc2F)c2ncc(-c3c(C)noc3C)cc12` [P-0249, 5-(1-(2,4-difluorophenyl)-5-(3,5-dimethylisoxazol-4-yl)-1H-pyrrolo[2,3-b]pyridin-3-yl)-4-ethoxy-2-hydroxybenzoic acid], 6.00 to 10.00.
As for `CCOc1cc(OC)c(C(=O)O)cc1-c1cn(-c2ccc(F)cc2F)c2ncc(-c3c(C)noc3C)cc12` [P-0250, 5-(1-(2,4-difluorophenyl)-5-(3,5-dimethylisoxazol-4-yl)-1H-pyrrolo[2,3-b]pyridin-3-yl)-4-ethoxy-2-methoxybenzoic acid], the figure is 6.00 to 10.00.
As for `Cc1noc(C)c1-c1cnc2c(c1)c(-c1ccc(C(=O)O)cc1OC(F)(F)F)cn2-c1cnccc1F` [P-0251, 4-(5-(3,5-dimethylisoxazol-4-yl)-1-(4-fluoropyridin-3-yl)-1H-pyrrolo[2,3-b]pyridin-3-yl)-3-(trifluoromethoxy)benzoic acid], the figure is 6.00 to 10.00; as for `Cc1noc(C)c1-c1cnc2c(c1)c(-c1ccc(C(=O)O)cc1OC(F)(F)F)cn2-c1cnccc1O` [P-0252, 4-(5-(3,5-dimethylisoxazol-4-yl)-1-(4-hydroxypyridin-3-yl)-1H-pyrrolo[2,3-b]pyridin-3-yl)-3-(trifluoromethoxy)benzoic acid], 6.00 to 10.00; as for `Cc1noc(C)c1-c1cnc2c(c1)c(-c1ccc(C(=O)O)cc1OC(F)(F)F)cn2-c1ccncc1Cl` [P-0253, 4-(1-(3-chloropyridin-4-yl)-5-(3,5-dimethylisoxazol-4-yl)-1H-pyrrolo[2,3-b]pyridin-3-yl)-3-(trifluoromethoxy)benzoic acid], 6.00 to 10.00.
In the case of `Cc1noc(C)c1-c1cnc2c(c1)c(-c1ccc(C(=O)O)cc1OC(F)(F)F)cn2-c1c(F)cccc1C#N` [P-0254, 4-(1-(2-cyano-6-fluorophenyl)-5-(3,5-dimethylisoxazol-4-yl)-1H-pyrrolo[2,3-b]pyridin-3-yl)-3-(trifluoromethoxy)benzoic acid], the pIC50 is 6.00 to 10.00.
As for `COc1cc(C(=O)O)cc(C)c1-c1cn(-c2ccccc2)c2ncc(-c3c(C)noc3C)cc12` [P-0255, 4-(5-(3,5-dimethylisoxazol-4-yl)-1-phenyl-1H-pyrrolo[2,3-b]pyridin-3-yl)-3-methoxy-5-methylbenzoic acid], the figure is 6.00 to 10.00; as for `Cc1noc(C)c1-c1cnc2c(-c3ccc(C(=O)O)cc3C#N)c(C(F)(F)F)n([C@@H](C)c3ccccn3)c2c1` [P-0256, (S)-3-cyano-4-(6-(3,5-dimethylisoxazol-4-yl)-1-(1-(pyridin-2-yl)ethyl)-2-(trifluoromethyl)-1H-pyrrolo[3,2-b]pyridin-3-yl)benzoic acid], 6.00 to 10.00.
As for `Cc1noc(C)c1-c1cnc2c(-c3cc(C(=O)O)ccc3Cl)c(C(F)(F)F)n([C@@H](C)c3ccccn3)c2c1` [P-0257, (S)-4-chloro-3-(6-(3,5-dimethylisoxazol-4-yl)-1-(1-(pyridin-2-yl)ethyl)-2-(trifluoromethyl)-1H-pyrrolo[3,2-b]pyridin-3-yl)benzoic acid], the figure is 6.00 to 10.00; as for `CCOc1cc(C(=O)O)cc(OCC)c1-n1cc(-c2cnn(CS(C)(=O)=O)c2)c2ncc(-c3c(C)noc3C)cc21` [P-0258, 4-(6-(3,5-dimethylisoxazol-4-yl)-3-(1-((methylsulfonyl)methyl)-1H-pyrazol-4-yl)-1H-pyrrolo[3,2-b]pyridin-1-yl)-3,5-diethoxybenzoic acid], 6.00 to 10.00.
The result for `CCOc1cc(C(=O)O)cc(OCC)c1-n1cc(-c2cn(C(C)C)nc2C)c2ncc(-c3c(C)noc3C)cc21` [P-0259, 4-(6-(3,5-dimethylisoxazol-4-yl)-3-(1-isopropyl-3-methyl-1H-pyrazol-4-yl)-1H-pyrrolo[3,2-b]pyridin-1-yl)-3,5-diethoxybenzoic acid] reads 6.00 to 10.00; that for `CCOc1cc(C(=O)O)cc(OCC)c1-n1cc(-c2cnn(CC(C)(C)O)c2)c2ncc(-c3c(C)noc3C)cc21` [P-0260, 4-(6-(3,5-dimethylisoxazol-4-yl)-3-(1-(2-hydroxy-2-methylpropyl)-1H-pyrazol-4-yl)-1H-pyrrolo[3,2-b]pyridin-1-yl)-3,5-diethoxybenzoic acid], 6.00 to 10.00; that for `CCOc1cc(C(=O)O)cc(OCC)c1-n1cc(-c2cnn(C(F)F)c2)c2ncc(-c3c(C)noc3C)cc21` [P-0261, 4-(3-(1-(difluoromethyl)-1H-pyrazol-4-yl)-6-(3,5-dimethylisoxazol-4-yl)-1H-pyrrolo[3,2-b]pyridin-1-yl)-3,5-diethoxybenzoic acid], 6.00 to 10.00.
Regarding `CCOc1cc(C(=O)O)cc(OCC)c1-n1cc(-c2cnn(CCN(C)C)c2)c2ncc(-c3c(C)noc3C)cc21` [P-0262, 4-(3-(1-(2-(dimethylamino)ethyl)-1H-pyrazol-4-yl)-6-(3,5-dimethylisoxazol-4-yl)-1H-pyrrolo[3,2-b]pyridin-1-yl)-3,5-diethoxybenzoic acid], the pIC50 was 6.00 to 10.00.
For the molecule `CCOc1cc(C(=O)O)cc(OCC)c1-n1cc(-c2cn(C)nc2C)c2ncc(-c3c(C)noc3C)cc21` [P-0263, 4-(3-(1,3-dimethyl-1H-pyrazol-4-yl)-6-(3,5-dimethylisoxazol-4-yl)-1H-pyrrolo[3,2-b]pyridin-1-yl)-3,5-diethoxybenzoic acid], the pIC50 is 6.00 to 10.00.

For the origin of these results see patent US11446287B2, “Compounds and methods for EP300 or CBP modulation and indications therefor” (Opna Immuno-Oncology SA, priority 2019, dated 2022).
